Measured values as given in patent publication US11618770B2, “MUC1-derived peptide, and pharmaceutical composition for treatment or prevention of cancer, immunity-inducing agent and method for manufacturing antigen presenting cell using same” (NEC CORPORATION, priority 2015, dated 2023).
Ends that are not written are not given here.

What was measured:
HLA-A*24:02 molecule = HLA-A*24:02 molecule (Homo sapiens, UniProt P04439, D101N/D140Y/D185E/E176V/E190D/F33S/G103R/G107R/I119L/I121M/I306V/K335N/L105A/L180Q/L300P/N151K/N90K/Q86E/Q94H/R106L/R138H/R89G/T104I/T345S/V100E/W191G/Y123F); test: Experiment of binding peptide to HLA-A*24:02 molecule (C1R-A24 cells, antibody 17A12, FACS); settings: for Kd: given as negative numbers (log of Kd value), C1R-A24 cells, on ice 4 hours
Protocol: Experiment of Binding Peptide to HLA-A*24:02 Molecule
The ability of each of the peptides to bind to an HLA-A*24:02 molecule, which is an HLA-A*24:02 gene product, was measured using C1R-A24 cells expressing the HLA-A*24:02 molecule (cells prepared by Professor Masafumi TAKIGUCHI, Kumamoto University being supplied with permission by Assistant Professor Masaki YASUKAWA, Ehime University).
First, C1R-A24 cells were exposed to acidic conditions at a pH of 3.3 for 30 seconds, and thus an endogenous peptide that originally binds to the HLA-A*24:02 molecule, and a light chain β2m, which is associated with HLA class-I molecules in common, were dissociated and removed. After neutralization, a purified β2m was added to C1R-A24 cells, and the obtained product was added to a series of dilutions of the peptide and incubated on ice for 4 hours. Staining was carried out using a fluorescently labeled monoclonal antibody 17A12, which recognizes association (MHC-pep) of the three members, that is, a HLA-A*24:02 molecule, a peptide, and β2m, which had reassociated during the incubation.
Thereafter, the MHC-pep count per C1R-A24 cell (proportional to the intensity of fluorescence of the above-mentioned fluorescent antibody) was quantitatively measured using a fluorescence-activated cell sorter FACScan (Becton-Dickinson). A binding-dissociation constant Kd value between the HLA-A*24:02 molecule and the peptide was calculated from the average intensity of fluorescence per cell using a method that was reported in a paper (Udaka et al., Immunogenetics, 51, 816-828, 2000) by the inventors of the present invention.

HLA-A*02:01 molecule = biological target: T1, HLA-A*02:01 molecule (Homo sapiens, UniProt P04439, D140Y/D185E/D98H/E176V/E277Q/G131W/G231S/I119V/I121R/I166T/I218V/L300P/L318F/N151K/N90K/P208A/P217A/Q86G/Q94H/R138H/R169H/T345S); test: Experiment of binding peptide to HLA-A*02:01 molecule (T2 cells, antibody BB7.2, flow cytometer); settings: for Kd: given as negative numbers (log of Kd value), T2 cells, 37° C. 4 hours
T1 construct: a cell line T2 (purchased from ATCC) expressing the HLA-A*02:01 molecule; host or cells: T2 cells
Protocol: Experiment of Binding Peptide to HLA-A*02:01 Molecule
The ability of each of the peptides to bind to an HLA-A*02:01 molecule, which is an HLA-A*02:01 gene product, was measured using a cell line T2 (purchased from ATCC) expressing the HLA-A*02:01 molecule.
The T2 cells and purified β2m were added to a series of serial dilutions of the peptide whose binding ability would be measured, and then incubation was carried out at 37° C. for 4 hours. The HLA-A*02:01 molecule that had increased in an expression amount in a peptide-concentration-dependent manner up to this point was stained using a fluorescently labeled monoclonal antibody BB7.2, which is specific to an association type.
(§1) Thereafter, the amount of fluorescence per cell was measured using a flow cytometer, and a dissociation constant Kd value was calculated using a method that was reported in a paper (Udaka et al., Immunogenetics, 51, 816-828, 2000) by the inventors of the present invention.

HLA-A*02:06 molecule = biological target: T2, HLA-A*02:06 molecule (Homo sapiens, UniProt P04439, D140Y/D185E/D98H/E176V/E277Q/F33Y/G131W/G231S/I119V/I121R/I166T/I218V/L300P/L318F/N151K/N90K/P208A/P217A/Q86G/Q94H/R138H/R169H/T345S); test: Experiment of binding peptide to HLA-A*02:06 molecule (RA2.6 cells, antibody BB7.2, flow cytometer); settings: for Kd: given as negative numbers (log of Kd value), RA2.6 cells
T2 construct: expressed in transfected cells; host or cells: RA2.6 cells (mouse TAP-deficient RMAS cells carrying HLA-A*02:06 cDNA)
Protocol: Experiment of Binding Peptide to HLA-A*02:06 Molecule
The ability of each of the peptides to bind to an HLA-A*02:06 molecule, which is an HLA-A*02:06 gene product, was measured using RA2.6 cells (cell line that had been newly produced in Kochi University) produced by introducing the cDNA of the HLA-A*02:06 gene into a mouse TAP (transporter associated with antigen processing)-deficient cell line RMAS.
First, RA2.6 cells were cultured at 26° C. overnight.
Thereafter, the cells were cultured at 35° C. for 4 hours. […] A fluorescently labeled monoclonal antibody BB7.2, which specifically recognizes a peptide-binding HLA-A*02:06 molecule, was added thereto, incubation was carried out on ice for 20 minutes, and thus the cells were stained.
as §1

CD8T cells = test: Peptide immunity induction testing (peptide-stimulated dendritic cells cocultured with CD8T cells, IFN-γ ELISA); format: cell-based, human
Protocol: Peptide Immunity Induction Testing
Of the peripheral blood monocytes obtained through pheresis from a patient (0) that had undergone a dendritic cell/CTL therapy against MUC1, a cell fraction that adhered to a culture flask was cultured in an AIM-CM culture medium (manufactured by Gibco) at 37° C. for 10 days. During the culture, 15 μl of IL-4 and 30 μl of a granulocyte monocyte colony-stimulating factor (GM-CSF) added to the culture medium on Day 0 and Day 3, and 15 μl of IL-4, 30 μl of GM-CSF, and 75 μl of a tumor necrosis factor (TFN)-α were added thereto on Day 5.
Induced dendritic cells were collected in a new AIM-CM culture medium, and the peptide of the present invention (Sequence ID Nos. 1 to 12) was added thereto to a concentration of 20 μg/ml. […]
CD8T cells were isolated from the culture medium using a CD8 negative selection kit (manufactured by Miltenyi), and the number of cells was counted. […]
The culture supernatant of the coculture of the T cells and the dendritic cells pulsed with the above-mentioned peptides on Day 7 was diluted to four steps, that is, ×1, ×5, ×25, and ×125, and the dilution step within a measurement limit was identified using Human IFN-γ ELISA MAX Deluxe Set (manufactured by BioLegend). Thereafter, at the identified dilution step, each sample was measured three times. […]

| Sequence | Kd (HLA-A*24:02 molecule) | Kd (HLA-A*02:01 molecule) | Kd (HLA-A*02:06 molecule) | Binding to HLA-A*24:02 molecule (in words) (HLA-A*24:02 molecule) | Binding to HLA-A*02:01 molecule (in words) (HLA-A*02:01 molecule) | Binding to HLA-A*02:06 molecule (in words) (HLA-A*02:06 molecule) | Immunogenicity (in words) (CD8T cells) |
| --- | --- | --- | --- | --- | --- | --- | --- |
| AASRYNLTI [Seq. ID No. 5, AASRYNLTI] | 0.711 µM | 15.4 µM | 150 µM | – | – | – | – |
| AFREGTINV [Seq. ID No. 4, AFREGTINV] | 1.47 µM | > 1000 µM | > 1000 µM | – | – | – | – |
| FLGLSNIKF [Seq. ID No. 1, FLGLSNIKF] | 0.0845 µM | 4.07 µM | 41.1 µM | – | – | – | – |
| FSAQSGAGV [Seq. ID No. 12, FSAQSGAGV] | > 1000 µM | 18.2 µM | 2.18 µM | – | – | – | – |
| GQDVTSVPV [Seq. ID No. 11, GQDVTSVPV] | > 1000 µM | 0.366 µM | 0.448 µM | – | – | – | – |
| GVPGWGIAL [Seq. ID No. 3, GVPGWGIAL] | 1.18 µM | 28.3 µM | 1.73 µM | – | – | – | – |
| HHSDTPTTL [Seq. ID No. 7, HHSDTPTTL] | 1.36 µM | > 1000 µM | > 1000 µM | – | – | – | – |
| LQRDISEMF [Seq. ID No. 6, LQRDISEMF] | 0.226 µM | > 1000 µM | 54.9 µM | – | – | – | – |
| SFFFLSFHI [Seq. ID No. 8, SFFFLSFHI] | 0.0861 µM | > 100 µM | 105 µM | – | – | – | – |
| STGVSFFFL [Seq. ID No. 10, STGVSFFFL] | 6.74 µM | 7.55 µM | 6.19 µM | strongly binds | strongly binds | strongly binds | high immunogenicity |
| SVPVTRPAL [Seq. ID No. 2, SVPVTRPAL] | 0.0573 µM | 125 µM | 2.36 µM | – | – | – | – |
| TLAFREGTI [Seq. ID No. 9, TLAFREGTI] | 1.06 µM | > 1000 µM | 820 µM | – | – | – | – |
